Data as given in PMC10606488, “Usnic Acid Derivatives Inhibit DNA Repair Enzymes Tyrosyl-DNA Phosphodiesterases 1 and 2 and Act as Potential Anticancer Agents” (Genes, 2023).
Read-outs that look alike come from different tables or passages of the source. Values belong to the molecule of their own block, whether it stands above or below them.

Experiments:
Recombinant human Tdp2 [1] = target: T1, Recombinant human Tdp2 (Homo sapiens, UniProt O95551); experiment: Gel-based Tdp2 activity assay; assay type: biochemical
T1 construct: made in house
T1 sequence (O95551 1-362): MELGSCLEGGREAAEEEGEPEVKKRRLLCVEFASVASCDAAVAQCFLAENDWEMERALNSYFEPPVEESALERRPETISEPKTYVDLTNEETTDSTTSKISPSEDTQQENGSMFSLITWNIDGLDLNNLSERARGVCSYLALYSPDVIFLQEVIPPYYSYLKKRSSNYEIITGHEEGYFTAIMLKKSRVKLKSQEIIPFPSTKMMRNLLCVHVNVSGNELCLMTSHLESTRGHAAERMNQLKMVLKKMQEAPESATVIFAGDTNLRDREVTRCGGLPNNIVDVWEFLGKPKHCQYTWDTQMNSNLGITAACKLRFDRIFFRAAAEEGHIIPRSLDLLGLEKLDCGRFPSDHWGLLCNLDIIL

[2] = test system: purified recombinant human Tdp1; settings: cited from earlier work
HEK293FT wild-type cells = experiment: Intrinsic cytotoxicity, MTT test, wild-type cells; assay type: cell-based, human; settings: 10 μM compound, 3 days
Experimental: (§1) The intrinsic cytotoxicity of the compounds was examined against cell line HEK293FT (human embryonic kidney) with a standard MTT test. The cells were grown in DMEM-F12 medium, with 50 IU/mL penicillin and 50 µg/mL streptomycin (Thermo Fisher Scientific, Waltham, MA, USA) in the presence of 10% fetal bovine serum (Biolot, Saint-Petersburg, Russia) in 5% CO2 atmosphere. Tested compounds were added after formation of a 30–50% monolayer to the medium (1:100 added reagents to the total volume of the culture medium, thus the final concentration of DMSO was 1%) and the cell culture was monitored for 3 days. Control cells were grown in the presence of 1% DMSO. The measurements of cytotoxicity were carried out in three repeats.
Since Tdp inhibitors are intended to be used in therapeutic cocktails, non-toxic concentrations of the compounds are required so as not to exacerbate the already serious side effects of therapy. We studied the intrinsic cytotoxicity of the compounds, (−)-11a,d,h, that inhibited Tdp2 on HEK293FT wild-type cells and Tdp2 knockout (Tdp2^−/−) cells (Figure 3). Tdp2 knockout HEK293FT cells were obtained using the CRISPR/Cas9 method. At 10 μM concentration, the cell survival was not less than 80% for both types of cells. This concentration was chosen for further studies of the ability of the compounds to sensitize the effect of the Top2 inhibitor etoposide.

HEK293FT Tdp2−/− cells = experiment: Intrinsic cytotoxicity, MTT test, Tdp2 knockout cells; assay type: cell-based, human; settings: 10 μM compound, 3 days
Experimental: as §1
We performed a selection of protospacers for human Tdp2 gene knockout with the Benchling CRISPR tool (https://www.benchling.com/) (accessed on 13 February 2020). Two 20-nt protospacer sequences were selected for deletion of exon 6 (PAM sequences in brackets) of the human Tdp2 gene (NM_016614.3): Tdp2-gRNA1 […](AGG) and Tdp2-gRNA2 […](TGG). The scheme of protospacers in the Tdp2 gene is shown on Figure S9A in the Supplementary Materials. Oligonucleotides were cloned in a pSpCas9(BB)-2A-GFP (PX458) plasmid that was a kind gift from Dr. Feng Zhang (Addgene plasmid #48138; http://n2t.net/addgene:48138 (accessed on 13 February 2020), RRID:Addgene_48138) as previously described. Transfection-grade DNA plasmids were isolated with the Plasmid Plus Midi Kit (QIAGEN, Hilden, Germany).
We transfected HEK293FT cells with the constructed plasmids (0.25 µg of each) pX458-Tdp2-gRNA1 and pX458-Tdp2-gRNA2 using Lipofectamine 3000 Reagent (Thermofisher Scientific, Waltham, MA, USA). We used growth medium containing DMEM/F12 (Thermofisher Scientific, MA, USA) 1:1, 10% fetal bovine serum (Thermofisher Scientific, MA, USA), 100 U/mL penicillin–streptomycin (Thermofisher Scientific, MA, USA), and GlutaMAX (1×) (Thermofisher Scientific, Waltham, MA, USA). […]

[3] = target: tyrosyl-DNA phosphodiesterase 2; settings: Figure 2; read-out: IC50 (Tdp2); cited from earlier work
Recombinant human Tdp2 [4] = target: T1, Recombinant human Tdp2; parameters: method as in PMID 34768766, PMID 35011303; settings: Figure 2; cited from earlier work
[5] = Effect of compounds on the cytotoxicity of etoposide, wild-type cells; assay type: cell-based; settings: human, HEK293FT wild-type cells; with vehicle (DMSO 1%), HEK293FT WT
Experimental: as §1
(§2) Different concentrations of etoposide and fixed concentrations of usnic acid derivatives 10 μM were used to evaluate the effect of the tested compounds on the cytotoxicity of etoposide.
We studied the effect of Tdp2 inhibitors on the cytotoxic effect of etoposide. The CC50 for etoposide was measured in the presence and absence of compounds. The sensitivity to etoposide in Tdp2 knockout cells was close to wild-type cells (Figure 4a). […] The significance of the differences between the metabolic activity of WT and Tdp2^−/− cells was assessed using the Mann–Whitney test. […]

[6] = Effect of compounds on the cytotoxicity of etoposide, Tdp2 knockout cells; assay type: cell-based; settings: human, HEK293FT Tdp2 knockout (Tdp2−/−) cells, with vehicle (DMSO 1%)
Experimental: as §1, §2
We performed a selection of protospacers for human Tdp2 gene knockout with the Benchling CRISPR tool (https://www.benchling.com/) (accessed on 13 February 2020). […]
We studied the effect of Tdp2 inhibitors on the cytotoxic effect of etoposide. The CC50 for etoposide was measured in the presence and absence of compounds. […] The significance of the differences between the metabolic activity of WT and Tdp2^−/− cells was assessed using the Mann–Whitney test. […]

[7] = (+)-usnic acid derivatives, read-out: Tdp1 IC50
[8] = (−)-usnic acid derivatives, read-out: Tdp1 IC50
[9] = Figure 1, read-out: IC50 (Tdp1)
[10] = Figure 2, read-out: IC50 (Tdp1)

IC50 (Recombinant human Tdp2 [1]; (+)-usnic acid derivatives): > 50 µM
Compound: CC(=O)C1=C(O)C=C2Oc3c(-c4csc(NN=Cc5ccc[nH]5)n4)c(O)c(C)c(O)c3C2(C)C1=O (single isomer, unassigned; (+)) [(+)-11a]
IC50 [2, 7]: 0.188 ± 0.003 µM

IC50 (Recombinant human Tdp2 [1]; (+)-usnic acid derivatives): > 50 µM
Compound: CC(=O)C1=C(O)C=C2Oc3c(-c4csc(NN=Cc5c[nH]c6ccccc56)n4)c(O)c(C)c(O)c3C2(C)C1=O (single isomer, unassigned; (+)) [(+)-11d]
IC50 [2, 7]: 0.026 ± 0.006 µM

IC50 (Recombinant human Tdp2 [1]; (+)-usnic acid derivatives): > 50 µM
Compound: COc1ccc(C=NNc2nc(-c3c(O)c(C)c(O)c4c3OC3=CC(O)=C(C(C)=O)C(=O)C34C)cs2)cc1CN1CCN(c2ccc(F)cc2)CC1 (single isomer, unassigned; (+)) [(+)-11h]
IC50 [2, 7]: 0.08 ± 0.007 µM

IC50 (Recombinant human Tdp2 [1]; (−)-usnic acid derivatives): 8 ± 4 µM
Compound: CC(=O)C1=C(O)C=C2Oc3c(-c4csc(NN=Cc5ccc[nH]5)n4)c(O)c(C)c(O)c3C2(C)C1=O (single isomer, unassigned; (-)) [(−)-11a]
cell survival (HEK293FT wild-type cells): not less than 80%
cell survival (HEK293FT Tdp2−/− cells): not less than 80%
IC50 [2, 8]: 0.018 ± 0.001 µM

IC50 (Recombinant human Tdp2 [1]; (−)-usnic acid derivatives): 6 ± 3 µM
Compound: CC(=O)C1=C(O)C=C2Oc3c(-c4csc(NN=Cc5c[nH]c6ccccc56)n4)c(O)c(C)c(O)c3C2(C)C1=O (single isomer, unassigned; (-)) [(−)-11d]
cell survival (HEK293FT wild-type cells): not less than 80%
cell survival (HEK293FT Tdp2−/− cells): not less than 80%
IC50 [2, 8]: 0.057 ± 0.001 µM

IC50 (Recombinant human Tdp2 [1]; (−)-usnic acid derivatives): 9 ± 1 µM
Compound: COc1ccc(C=NNc2nc(-c3c(O)c(C)c(O)c4c3OC3=CC(O)=C(C(C)=O)C(=O)C34C)cs2)cc1CN1CCN(c2ccc(F)cc2)CC1 (single isomer, unassigned; (-)) [(−)-11h]
cell survival (HEK293FT wild-type cells): not less than 80%
cell survival (HEK293FT Tdp2−/− cells): not less than 80%
IC50 [2, 8]: 0.059 ± 0.005 µM

Compound: CC(C)=CCC/C(C)=C/COc1ccc2c(-c3ccc(I)cc3)cc(=O)oc2c1 [compound 2, reference compound]
IC50 [2, 9]: 0.62 µM

Compound: CC(=O)c1c(O)c(C)c(O)c2c1OC1=CC(=O)/C(=C(/C)NCCCc3cc(C(C)(C)C)c(O)c(C(C)(C)C)c3)C(=O)[C@@]12C [compound 3, reference compound]
IC50 [2, 9]: 0.16 µM

Compound: CC(=O)C1=C(O)C=C2Oc3c(-c4csc(N/N=C/c5ccc(Br)cc5)n4)c(O)c(C)c(O)c3[C@@]2(C)C1=O [compound 4, reference compound]
IC50 [2, 9]: 0.026 µM

Compound: NC1=CC(N)=C2C=CC(=O)N=C2C1=O [compound 6]
IC50 [3]: 1.7 µM

Compound: CC(=O)C1=C(O)C=C2Oc3c(C(=O)CSC4=NCCS4)c(O)c(C)c(O)c3[C@@]2(C)C1=O [compound 7, reference compound]
IC50 [2, 10]: 4.4 µM
IC50 (Recombinant human Tdp2 [4]): ~1000 µM

Compound: C[C@H](CCC(=O)NCCc1c[nH]c2ccccc12)[C@H]1CCC2C3CCC4C[C@H](OCc5ccccc5)CC[C@]4(C)C3C[C@H](O)[C@@]21C (stereo partly shown) [compound 8, reference compound]
IC50 [2, 10]: 0.24 µM
IC50 (Recombinant human Tdp2 [4]): ~1000 µM

Compound: COc1cc([C@@H]2c3cc4c(cc3[C@@H](O[C@@H]3O[C@@H]5CO[C@@H](C)O[C@H]5[C@H](O)[C@H]3O)[C@H]3COC(=O)[C@H]23)OCO4)cc(OC)c1O [etoposide]
CC50 at 3 days [5]: 2.4 µM
CC50 at 3 days [6]: 2.3 µM
